The subject of the experiment is diamondback moth (Plutella xylostella). The experiment can be described thus: Control test against diamondback moth (Plutella xylostella), cabbage leaf spray. It is filed as in vivo. Particulars: 500 ppm active ingredient, sprayed on cabbage seedlings 20 mL/seedling, 2nd instar larvae, after 5 days, 25° C. The protocol:
Next, a Test Example is used to show efficacy of the Present compound against pests. In the following Test Example, the test was carried out at 25° C. The Present compound was formulated according to the process described in the Formulation Example 6 to obtain a formulation, and water containing a spreader (0.03% by volume) was added thereto to prepare a diluted solution containing 500 ppm of the active ingredient. Cabbage (Brassicae oleracea) seedlings (on the developmental stage of the second to third true leaf) were planted in a container, and said diluted solution was sprayed into the leaves of the seedlings at a ratio of 20 mL/seedling. Thereafter, the stems and leaves of the seedlings were cut out, and the leaves were placed into a container lined with a filter paper. Approximately five the 2nd instar larvae of diamondback moth (Plutella xylostella) were released into the container. After 5 days, the number of the surviving insects was examined, and the controlling value was calculated by the following equation. […] Controlling value (%)={1−(Cb×Tai)/(Cai×Tb)}×100 wherein the symbols in the equation represent the following meanings. […]

We go through 1 molecule from US10939681B2, “Tetrazolinone compound and use thereof” (SUMITOMO CHEMICAL COMPANY, LIMITED, priority 2017, dated 2021).

In the case of `Cc1cccc(-n2nnn(C)c2=O)c1Cn1nnn(-c2cccc(C)c2COc2ccn(-c3ccc(Cl)cc3)n2)c1=O` [Present compound], the “Controlling value (control effects)” value came out at 100%.
